Reference: US12613246B2, “Fluorescent probe and protein labeling method” (SHANGHAI GLORY CAPITAL MANAGEMENT LTD., priority 2018, dated 2026)

Key:
[1] = Fluorescence emission spectra of probes in glycerol and methanol (viscosity response); format: physicochemical; conditions: maximum excitation wavelength of each probe; for Fluorescence ratio in glycerol methanol: 1×10^−5 M; for Emission wavelength: medium not given
Source text: Respectively dissolve Probe 1-32 and Reference Probes BG-CCVJ and BG-Gly-CCVJ in dimethyl sulfoxide so as to prepare a mother liquid with a concentration of 1×10^−2M; add the mother liquid to glycerol and methanol respectively and mix them well to prepare a solution with a concentration of 1×10^−5 M. Based on different probes, the fluorescence emission spectrum of each probe are detected under the same conditions with maximum excitation wavelength of each probe.
The probes are sensitive to the change of viscosity and have viscosity response.

SNAP protein tag = experiment: Fluorescence activation after mixing probe with corresponding protein tag (SNAP); format: biochemical; conditions: probe 5 μM, protein tag 10 μM, 37° C., 1 h
Description: (§1) Mix the probe with corresponding protein tag to obtain the mixed sample, wherein the final concentration of probe in the mixed sample is 5 μM, and the final concentration of protein tags is 10 μM; hatch the mixed sample at 37° C. for 1 h, and detect its fluorescence intensity change by using the fluorescence spectrophotometer.
(§2) According to the free probe quantum yield shown in Table 1, the fluorescence of the probes of and reference probes are extremely low before the reaction with the protein tag, and is close to the background fluorescence level of PBS buffer solution. […] However, according to the quantum yield of the binding protein tag, the fluorescence signal enhancement can be detected in the corresponding excitation emission channel after the probe reacts with the protein tag with hundreds to one thousand fold fluorescence activation times and very high brightness; the reference probes also can activate fluorescence, but the fluorescence quantum yield and brightness after activation are quite low.

[2] = Fluorescence of free probe before reaction with the protein tag; format: physicochemical
Description: as §1, §2

| Fluorescence ratio in glycerol methanol [1] | Emission wavelength [1] [nm] | Quantum yield of binding protein tags (SNAP protein tag) | Quantum yield of free probe [2] | SMILES | Fluorescence activation multiple (SNAP protein tag) |
| --- | --- | --- | --- | --- | --- |
| 493 | 645 | 0.41 | <0.001 | CN(CCOC(=O)NCc1ccc(COc2cc(Cl)nc(N)n2)cc1)c1ccc2c(c1)C(C)(C)c1cc(/C=C(\C#N)C(=O)OC(C)(C)C)sc1-2 [Probe 27] | 557 |
| 601 | 550 | 0.39 | <0.001 | CN(CCOC(=O)NCc1ccc(COc2cc(Cl)nc(N)n2)cc1)c1ccc2nc(/C=C(\C#N)C(=O)OC(C)(C)C)ccc2c1 [Probe 4] | 567 |
| 851 | 627 | 0.41 | <0.001 | COCCNC(=O)/C(C#N)=C/c1ccc(-c2ccc(N(C)CCOC(=O)NCc3ccc(COc4nc(N)nc5[nH]cnc45)cc3)cc2)o1 [Probe 6] | 745 |
| 512 | 643 | 0.33 | <0.001 | CN(CCOC(=O)NCc1ccc(COc2nc(N)nc3[nH]cnc23)cc1)c1ccc2c(c1)C(C)(C)c1cc(/C=C(\C#N)C(=O)O)sc1-2 [Probe 23] | 433 |
| 542 | 680 | 0.39 | <0.001 | COC(=S)/C(C#N)=C/c1cc2c(s1)-c1ccc(N(C)CCOC(=O)NCc3ccc(COc4nc(N)nc5[nH]cnc45)cc3)cc1C2(C)C [Probe 21] | 451 |
| 562 | 550 | 0.41 | <0.001 | CN(CCOC(=O)NCc1ccc(COc2nc(N)nc3[nH]cnc23)cc1)c1ccc2nc(/C=C(\C#N)C(=O)OC(C)(C)C)ccc2c1 [Probe 1] | 490 |
| 311 | 650 | 0.37 | 0.0012 | CN(CCOC(=O)NCc1ccc(COc2nc(N)nc3[nH]cnc23)cc1)c1ccc(-c2ccc(/C=C(\C#N)C(=O)OC(C)(C)C)o2)o1 [Probe 13] | 359 |
| 573 | 703 | 0.47 | <0.001 | CN(CCOC(=O)NCc1ccc(COc2nc(N)nc3[nH]cnc23)cc1)c1ccc2c(c1)C(C)(C)C(/C=C(\C#N)c1nc3ccccc3s1)=N2 [Probe 31] | 445 |
| 553 | 675 | 0.41 | <0.001 | CN(CCOC(=O)NCc1ccc(COc2nccc(N)n2)cc1)c1ccc2c(c1)C(C)(C)C(/C=C(\C#N)C(=O)OC(C)(C)C)=N2 [Probe 32] | 421 |
| 790 | 630 | 0.44 | <0.001 | CN(CCOC(=O)NCc1ccc(COc2nc(N)nc3[nH]cnc23)cc1)c1ccc2nc(/C=C(\C#N)c3nc4ccccc4o3)ccc2c1 [Probe 2] | 556 |
| 1274 | 651 | 0.67 | <0.001 | CN(CCOC(=O)NCc1ccc(COc2nc(N)nc3[nH]cnc23)cc1)c1ccc2c(c1)C(C)(C)c1cc(/C=C(\C#N)C(=O)OC(C)(C)C)oc1-2 [Probe 28] | 857 |
| 260 |  |  | <0.001 | N#C/C(=C\c1cc2c3c(c1)CCCN3CCC2)C(=O)NCC(=O)NCc1ccc(COc2nc(N)nc3[nH]cnc23)cc1 [Reference probe BG-Gly-CCVJ, reference compound] | 60 |
